Results reported in patent publication US9980943B2, “Methods of treating muscular dystrophy” (BOARD OF REGENTS OF THE NEVADA SYSTEM OF HIGHER EDUCATION, …, priority 2013, dated 2018).
Where two headings read alike, the source gives them in different places.

System: α7 integrin (LacZ reporter in α7LacZ+/− myoblasts)
Assay: qHTS of the LOPAC library and MLSMR (online screen, α7LacZ+/− myoblasts)
Settings: for activation at 0.307 µM / activation at 1.53 µM / activation at 7.66 µM / activation at 38.3 µM / Emax / EC50: Mus musculus, Myoblast; for activation at 0.307 µM: read-out: Activity at 0.307 uM [%] **; for activation at 1.53 µM: read-out: Activity at 1.530 uM [%] **; for activation at 7.66 µM: read-out: Activity at 7.660 uM [%] **; for activation at 38.3 µM: read-out: Activity at 38.30uM [%] **; for EC50: read-out: Fit LogAC50 (converted)
[1] = 48 h, read-out: Fit Infinite Activity [%]

Row | SMILES | activation at 0.307 µM (48 h) [%] | activation at 1.53 µM (48 h) [%] | activation at 7.66 µM (48 h) [%] | activation at 38.3 µM (48 h) [%] | Emax [1] [%] | EC50 [µM] | Curve Description | Score | Emax (read-out: Max Response [%]) [%]
1 | CCOc1ccccc1NC(=O)c1cccc2c1C(=O)N(C1CCCCC1)C2 [Compound 15] | -13.7 | 4.71 | 58 | 73.6 | 75.3 | 3.16 |  |  | 
2 | NC(=O)c1nsc(C(=O)N(c2ccccc2)C(C(=O)NCc2ccc(F)cc2)c2ccc(O)cc2)c1N (stereo not shown) [Compound 16] | -30.2 | 5.64 | 58.2 | 75.2 | 77.5 | 2.24 |  |  | 
3 | CCc1ccc(N(C(=O)c2snc(C(N)=O)c2N)C(C(=O)NC2CCCC2)c2ccco2)cc1 (stereo not shown) [Compound 17] | -18.3 | 9.37 | 52.7 | 67.6 | 71.4 | 2.51 |  |  | 
4 | COC(=O)C(=O)C/C(=N/Nc1ncnc2ccccc12)c1ccc(Cl)cc1 [Compound 18] | 7.75 | 30.6 | 358 |  |  | 10 |  |  | 
5 | Cc1cc(NC(=O)c2ccc(Cl)cc2Cl)no1 [Compound 19] | -20.1 | 15 | 43.9 | 52.1 | 52.7 | 1.41 |  |  | 
6 | CCOC(=O)Cc1csc(NC(=S)NC(=O)c2cc(OC)c(OC)c(OC)c2)n1 [Compound 20] | -18.1 | -4.46 | 69.3 | 82.9 | 83.9 | 3.55 |  |  | 
7 | CC(C)CC1NC(=O)N(CC(=O)N2c3ccccc3NC(=O)C2(C)C)C1=O (stereo not shown) [Compound 21] | 2.86 | 0 | 75.6 | 93.3 | 93.5 | 5.62 |  |  | 
8 | COCCSc1ccccc1C(=O)Nc1cc(C)cc(C)c1 [Compound 22] | 0 | 0 | 78.3 | 82.9 | 83.1 | 4.47 |  |  | 
9 | O=c1oc2c(-c3cccc(F)c3)cc(O)cc2s1 [Compound 23] | 12.6 | 18.8 | 87.3 | 98.9 | 98.5 | 3.98 |  |  | 
10 | Cc1ccc(C2Nc3cccc4cccc(c34)N2)s1 [Compound 24] | 5.89 | 19.6 | 73.1 | 81.3 | 82.7 | 3.16 |  |  | 
11 | COc1cc(=O)n(C)c2ccccc12 [Compound 25] | -16.5 | 11.1 | 54.5 | 63 | 64.1 | 2.24 |  |  | 
12 | CCOC(=O)c1sc(=N)n(-c2ccc(OC)cc2)c1C [Compound 26] | -25.4 | 4.59 | 41.9 | 56.1 | 59.6 | 2 |  |  | 
13 | Cc1ccc(OCC(=O)N2CCN(S(=O)(=O)c3ccc4c(c3)OCCO4)CC2)c(C)c1 [Compound 27] | -26.2 | 3.31 | 51.6 | 53.8 | 55 | 2 |  |  | 
14 | CC(NC(=O)c1cn(C)c2ccc(S(=O)(=O)N3CCCC3)cc2c1=O)c1ccccc1 (stereo not shown) [Compound 28] | -36 | -20.6 | 48.9 | 54.7 | 55.3 | 2.82 |  |  | 
15 | Cc1cc(NC(=O)CCC(=O)N(Cc2cccnc2)C(C(=O)NC(C)(C)C)c2ccccc2Cl)no1 (stereo not shown) [Compound 29] | -23.8 | -13.5 | 36 | 54.9 | 55.7 | 3.98 |  |  | 
16 | COc1cc(/C=C2/C(=N)N3C(SC)=NSC3=NC2=O)ccc1OC(=O)c1ccco1 [Compound 30] | -18.3 | -9.07 | 55.5 | 73.4 | 73.6 | 3.98 |  |  | 
17 | COc1ccccc1CNc1cc(C)ccn1 [Compound 31] | -22.9 | -0.943 | 53.2 | 62.3 | 62.2 | 2.51 |  |  | 
18 | Cc1nn(C(C)(C)C)c(C)c1/C=N/OC(=O)Nc1ccc(Cl)c(Cl)c1 [Compound 32] | -28.1 | -9.46 | 51 | 59.8 | 60.2 | 2.82 | Complete |  | 
19 | CCOC(=O)C1CCCN(C(=O)CNS(=O)(=O)c2ccc(Br)s2)C1 (stereo not shown) [Compound 33] | -41.8 | -14.3 | 17 | 31.1 | 33.2 | 2 |  |  | 

Row | SMILES | activation at 0.307 µM (48 h) [%] | activation at 1.53 µM (48 h) [%] | activation at 7.66 µM (48 h) [%] | activation at 38.3 µM (48 h) [%] | Emax [1] [%] | EC50 [µM] | Curve Description | Score | Emax (read-out: Max Response [%]) [%]
20 | CCCCNC(=O)CSc1nnc(Cc2ccc(Cl)c(Cl)c2)c(O)n1 [Compound 34] | 9.41 | 43.8 | 74.3 | 75.4 | 76.4 | 1.41 |  |  | 
21 | O=Cc1ccc(C(=O)OCC(=O)N2CCCC2)cc1 [Compound 35] | 0 | 12 | 71.5 | 71.8 | 72.6 | 2.51 |  |  | 
22 | CC(C)/N=C(\S)NN=C1CCCCCCCCCCC1 [Compound 36] | 7.67 | 25.7 | 65.1 | 78.6 | 81.2 | 3.16 |  |  | 
23 | COc1ccc(S(=O)(=O)N(NC2=NS(=O)(=O)c3ccccc32)C(=O)C(C)C)cc1 [Compound 37] | -1.77 | 15.3 | 70.7 | 72.9 | 74.5 | 2.51 |  |  | 
24 | C/C(CC(=O)Nc1ccc(Cl)c(C(F)(F)F)c1)=N\NC(=O)c1cnccn1 [Compound 38] | -0.625 | -2.88 | 69.2 | 72.7 | 73.5 | 4.47 |  |  | 
25 | Cc1ccc(-c2onc3ccc(C(=O)/C=C/N(C)C)cc23)cc1 [Compound 39] | -7.76 | 5.51 | 52.9 | 69.1 | 69.5 | 3.55 |  |  | 
26 | Cc1cccn2c(=O)c3cc(C(=O)NC4CCCCC4)n(C)c3nc12 [Compound 40] | -13.7 | 5.58 | 25.2 | 427 | 433 | 14.1 |  |  | 
27 | COc1ccc(Cl)cc1NC(=O)CC(=O)Nc1cc(Cl)ccc1OC [Compound 41] | 8.75 | 9.71 | 34.1 | 453 | 457 | 14.1 |  |  | 
28 | COc1cc(/C=C/CN2CCN(Cc3ccc(C)o3)C(CCO)C2)ccc1O (stereo not shown) [Compound 42] | 20.1 | 0 | 32.1 | 481 | 485 | 14.1 |  |  | 
29 | O=C(Cn1cccc1C(=O)c1ccccc1)NCCCc1ccccc1 [Compound 43] | 13.7 | 43.9 | 94.3 | 131 | 148 | 3.98 |  |  | 
30 | CC(=O)Nc1ccc(N(C(=O)c2cnccn2)C(C(=O)NC2CCCCC2)c2ccc(F)cc2)cc1 (stereo not shown) [Compound 44] | -13.5 | -18.8 | 38.1 | 308 | 311 | 11.2 |  |  | 
31 | CCOC(=O)C1=C(NC(=O)c2ccc(OC)c(S(=O)(=O)N3CCCCC3C)c2)Nc2ccccc2N=C1CC (stereo not shown) [Compound 45] | -16.6 | 0.0514 | 18.6 | 414 | 420 | 14.1 |  | 47 | 414
32 | COc1ccc(N2CCCC2)c(NC(=O)c2ccc([N+](=O)[O-])o2)c1 [Compound 46] | -29.7 | 4.44 | 77.6 | 156 | 196 | 7.94 |  |  | 
33 | CC(=O)Nc1ccc(NC(=O)[C@@H](NC(=O)c2cccc(C)c2)C(C)C)cc1 [Compound 47] | 17.2 | 32.2 | 97.3 | 142 | 154 | 5.62 |  |  | 
34 | O=C(O)c1cc(/N=C/c2c(O)oc3ccccc3c2=O)ccc1O [Compound 48] | -32 | -23.3 | 76.6 | 165 | 179 | 7.08 |  |  | 
35 | O=[N+]([O-])c1ccc(N2CCN(c3ccccc3F)CC2)nc1 [Compound 49] | 2.3 | 15.5 | 102 | 151 | 154 | 5.62 |  |  | 
36 | O=C1SC(Cc2ccccc2)C(=O)N1c1ccccc1 (stereo not shown) [Compound 50] | 7.9 | 9.4 | 94.1 | 176 | 186 | 7.94 |  |  | 
37 | Cc1ccc(NCc2nnc(SCC(=O)Nc3nnc(C)s3)n2C)cc1 [Compound 51] | -27.9 | -17.6 | 31.4 | 249 | 250 | 10 |  |  | 
